Measured values: PMC4016748, “Using ^15N-Ammonium to Characterise and Map Potassium Binding Sites in Proteins by NMR Spectroscopy” (Chembiochem, 2014)

Columns and labels:
DnaK-ABD [1] = target: T1, DnaK-ABD (Thermus thermophilus, UniProt Q56235); test: 1H, […] HSQC NMR of bound […]NH4+ (indirect); format: binding; settings: 0.5 mM ADP added together with 50 mM phosphate; 150 mM 15NH4Cl, 5 mM MgCl2, 1 mM DTT, pH 7.5
DnaK-ABD [2] = target: T1, DnaK-ABD; settings: 150 mM 15NH4Cl, 5 mM MgCl2, 0.5 mM ADP, 50 mM phosphate, 1 mM DTT, pH 7.5; two sites; 15N-labelled compound
HDAC8 = HDAC8 (Homo sapiens, UniProt Q9BY41); test: biochemical
Chain of HDAC8 (Q9BY41 whole entry): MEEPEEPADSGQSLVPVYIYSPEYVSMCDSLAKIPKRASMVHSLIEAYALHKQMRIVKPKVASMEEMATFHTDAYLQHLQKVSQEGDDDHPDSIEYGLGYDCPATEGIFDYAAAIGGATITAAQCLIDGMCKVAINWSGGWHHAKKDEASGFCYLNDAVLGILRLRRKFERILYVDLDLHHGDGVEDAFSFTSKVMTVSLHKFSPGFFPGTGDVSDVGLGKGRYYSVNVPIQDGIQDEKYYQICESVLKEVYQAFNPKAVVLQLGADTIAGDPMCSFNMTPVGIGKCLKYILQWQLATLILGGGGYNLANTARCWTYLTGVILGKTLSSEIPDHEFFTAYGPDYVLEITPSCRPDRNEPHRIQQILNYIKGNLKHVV

T1 sequence (Q56235 1-381): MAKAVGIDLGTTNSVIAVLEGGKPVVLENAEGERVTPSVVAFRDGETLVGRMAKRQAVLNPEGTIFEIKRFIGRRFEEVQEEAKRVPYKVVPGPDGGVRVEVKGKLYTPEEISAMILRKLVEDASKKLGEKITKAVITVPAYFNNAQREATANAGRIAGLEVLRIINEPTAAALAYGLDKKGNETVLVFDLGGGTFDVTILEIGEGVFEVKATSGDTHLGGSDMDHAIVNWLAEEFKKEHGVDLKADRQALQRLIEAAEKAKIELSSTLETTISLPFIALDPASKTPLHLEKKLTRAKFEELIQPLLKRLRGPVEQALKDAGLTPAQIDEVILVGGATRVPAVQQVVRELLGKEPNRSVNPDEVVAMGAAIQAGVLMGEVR

Kd (HDAC8) [mM]	Structure (SMILES)	1H,15N HSQC NMR of bound 15NH4+ (indirect) (DnaK-ABD [1])	1H,15N HSQC NMR and 15N-edited NOESY (DnaK-ABD [2])
	Nc1ncnc2c1ncn2[C@@H]1O[C@H](COP(=O)(O)OP(=O)(O)O)[C@@H](O)[C@H]1O [ADP]	binding of ADP and Pi protects the ammonium protons from solvent exchange	
13 ± 8	N [15NH4+]		addition of ADP and Pi resulted in the appearance of two clear peaks
